These results are taken from patent US6706663B2, “Herbicidal 3-heterocyclic substituted benzisothiazole and benzisoxazole compounds” (Wyeth, priority 2000, dated 2004).

Holding throughout (test): Postemergence herbicidal evaluation
Holding throughout (conditions): postemergence

Assay [1] deals with ECHCG (Echinochloa crus-galli). The format is in vivo, (L.) Beau. In a few lines:
(§1)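 Seedlings grown about two weeks in flats, sprayed, then kept under standard greenhouse care. Rated visually 4–5 weeks after treatment on a 0–9 scale (stand, vigour, malformation, size, chlorosis, overall appearance) relative to untreated control; repeat tests averaged.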

Assay [2] has as its system IPOHE (Ipomoea hederacea). The format is in vivo, (L.) Jacq. The method in brief: as §1
The subject of the next assay is ZEAMX (Corn, Field). Format: in vivo, Zea mays, L. In a few lines:
as §1

For assay [3], the system named is AMBEL (Ambrosia artemisifolia). The format is in vivo, L. The method in brief: as §1
In assay [4] the test system is CHEAL (Chenopodium album). The format is in vivo, L. The method in brief: as §1
The test system of assay [5] is ABUTH (Abutilon theophrasti). Format: in vivo, Medic. In a few lines: as §1
A further assay relates to GLXMA (Soybean). Format: in vivo, Glycine max, (L.) Merr. As for the experimental part:
In the tests, seedling plants are grown in jiffy flats for about two weeks. The test compounds are dispersed in 50/50 acetone/water mixtures containing 0.5% TWEEN® 20, a polyoxyethylene sorbitan monolaurate surfactant of Atlas Chemical Industries, in sufficient quantities to provide the equivalent of about 0.0040 kg to 1.000 kg per hectare of active compound when applied to the plants through a spray nozzle operating at 40 psi for a predetermined time. After spraying, the plants are placed on greenhouse benches and are cared for in accordance with conventional greenhouse procedures. From four to five weeks after treatment, the seedling plants are examined and rated according to the rating system set forth below. Where more than one test is involved for a given compound, the data are averaged.
Results of herbicide evaluation are expressed on a rating scale (0-9). The scale is based upon a visual observation of plant stand, vigor, malformation, size, chlorosis and overall plant appearance as compared with a control.

Another assay has as its system SETVI (Setaria viridis). Format: in vivo, (L.) Beau. The method in brief: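 First, seedlings are raised in flats for about two weeks. Next, compound dispersed in 50/50 acetone/water with 0.5% TWEEN 20 is sprayed at 40 psi to deliver about 0.0040–1.000 kg/ha. Plants are then maintained in the greenhouse and rated 0-9 after four to five weeks.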

In the case of `CCN=C1NC(=O)C(OC)(c2nsc3ccc(-n4c(=O)cc(C(F)(F)F)n(C)c4=O)cc23)N1` (stereo not shown) [Compound 98, 3-[3[4-methoxy-2-(ethylimino)-5-oxo-4-imidazolidinyl]-1,2-benzisothiazol-5-yl]-1-methyl-6-(trifluoromethyl)uracil], the ECHCG herbicidal rating in assay [1] (rate 0.0320 kg/ha) and in assay [1] (rate 0.0620 kg/ha) was 2.0 each time. The IPOHE herbicidal rating in assay [2] (rate 0.0320 kg/ha) is reported as 9.0; in assay [2] (rate 0.0620 kg/ha) it was 8.0. Further, the ZEAMX herbicidal rating is recorded as 3.5 in the assay with ZEAMX (Corn, Field) (rate 0.0320 kg/ha) and 3.5 in the assay on ZEAMX (Corn, Field) (rate 0.0620 kg/ha). Also, the AMBEL herbicidal rating in assay [3] (rate 0.0320 kg/ha) and in assay [3] (rate 0.0620 kg/ha) was 8.0 throughout. Moreover, the CHEAL herbicidal rating in assay [4] (rate 0.0320 kg/ha) is on record as 6.0; in assay [4] (rate 0.0620 kg/ha), 8.0. Moreover, the ABUTH herbicidal rating in assay [5] (rate 0.0320 kg/ha) and in assay [5] (rate 0.0620 kg/ha) was 9.0 each time. Besides, the GLXMA herbicidal rating with GLXMA (Soybean) (rate 0.0320 kg/ha) and in the assay with GLXMA (Soybean) (rate 0.0620 kg/ha) was 8.0 in each case. Moreover, the SETVI herbicidal rating in the assay with SETVI (Setaria viridis) (rate 0.0320 kg/ha) and in the assay with SETVI (Setaria viridis) (rate 0.0620 kg/ha) was 3.0 each time.
